SMILES strings stand for the structures. Read-outs that look alike come from different tables or passages of the source.

The target in experiment [1] is T1, human Cot catalytic domain (30-397 amino acids) (Homo sapiens, UniProt P41279).
T1 construct: Purified recombinant human Cot catalytic domain (30-397 amino acids) was purchased from Cama Biosciences; purchased Cama Biosciences (so in the source)
The experiment can be described thus: High Throughput Cot Biochemical Assay (KinEASE TR-FRET). Particulars: read-out: IC50 HTRF. Put shortly:
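Reaction of 5 nM recombinant human Cot catalytic domain (aa 30-397) with 1 μM STK3 peptide (XL665-labeled) and 400 μM ATP in 10 mM MOPS pH 7.0, 10 mM MgOAc, 1 mM DTT, 0.5 mg/mL BSA, 0.1% DMSO. Phosphopeptide detected by TR-FRET with europium anti-phospho antibody.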

For experiment [2], the system named is TNFα production in LPS-stimulated human monocytes. The experiment can be described thus: Cot Monocyte TNFα Cell Based Assay. The note with it: Homo sapiens, Monocyte, read-out: EC50 TNF. The gist of the method: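 Cells at 5,000/well were pretreated with compound for 1 h at 37 °C (0.5% DMSO final), then stimulated with 50 pg/ml LPS for 4 h at 37 °C. Supernatant TNFα was measured by two-antibody TR-FRET after overnight room-temperature incubation; values are percent of control between unstimulated and stimulated wells.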

Where [3] appears, read: Cot biochemical HTRF (KinEASE TR-FRET) assay.
Setting [4] is: TNFα in LPS-stimulated human monocytes.
Setting [5] is: Cot KinEASE TR-FRET, 400 μM ATP.
Where [6] appears, read: LPS-stimulated human monocytes, TNFα TR-FRET.
The mark [7] stands for this setting: Cot KinEASE TR-FRET (HTRF) biochemical assay, 400 μM ATP.

T1 sequence (P41279 30-397): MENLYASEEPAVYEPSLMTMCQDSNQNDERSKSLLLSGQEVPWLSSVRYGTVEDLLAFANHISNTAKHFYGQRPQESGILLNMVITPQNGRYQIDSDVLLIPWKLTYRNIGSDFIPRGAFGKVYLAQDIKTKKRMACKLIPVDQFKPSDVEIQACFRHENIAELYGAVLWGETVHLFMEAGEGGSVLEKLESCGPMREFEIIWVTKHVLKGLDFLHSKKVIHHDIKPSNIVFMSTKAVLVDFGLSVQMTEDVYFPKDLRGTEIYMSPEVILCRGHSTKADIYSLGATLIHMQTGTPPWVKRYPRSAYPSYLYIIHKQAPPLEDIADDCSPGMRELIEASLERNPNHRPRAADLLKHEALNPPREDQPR

Consider `CC(C)(C)N1CCC(n2cc([C@@H](Nc3cc(Cl)c4ncc(C#N)c(Nc5ccc(F)c(Cl)c5)c4c3)c3cccc(N4CCC4=O)c3)nn2)CC1` [Example 552, (S)-6-(((1-(1-(tert-butyl)piperidin-4-yl)-1H-1,2,3-triazol-4-yl)(3-(2-oxoazetidin-1-yl)phenyl)methyl)amino)-8-chloro-4-((3-chloro-4-fluorophenyl)amino)quinoline-3-carbonitrile], for which the IC50 in experiment [1] (setting [3]) worked out at 5 nM. Besides, the EC50 in experiment [2] (setting [4]) was 135 nM.

Consider `Cc1c(-c2cc[nH]n2)cccc1[C@H](Nc1cc(Cl)c2ncc(C#N)c(NCC(C)(C)C)c2c1)c1cn(C2(C(F)(F)F)CC2)nn1` [Example 1163, (S)-8-chloro-6-(((2-methyl-3-(1H-pyrazol-3-yl)phenyl)(1-(1-(trifluoromethyl)cyclopropyl)-1H-1,2,3-triazol-4-yl)methyl)amino)-4-(neopentylamino)quinoline-3-carbonitrile], for which the IC50 in experiment [1] (setting [5]) turned out to be 19 nM. Moreover, the EC50 in experiment [2] (setting [6]) worked out at 463 nM.

On to `CC(C)n1cc([C@@H](Nc2cc(Cl)c3ncc(C#N)c(N[C@H](C)c4ccccc4)c3c2)c2ccccc2)nn1` [Example 588, 8-chloro-6-(((S)-(1-isopropyl-1H-1,2,3-triazol-4-yl)(phenyl)methyl)amino)-4-(((R)-1-phenylethyl)amino) quinoline-3-carbonitrile], for which the IC50 in experiment [1] (setting [3]) came to 17 nM. For the same compound, the concentration for a half-maximal effect (EC50) in experiment [2] (setting [4]) turned out to be 1020 nM.

With `CC1(Nc2c(C#N)cnc3c(Cl)cc(N[C@@H](c4ccc(Cl)cc4)c4cn(C5CCN(C(C)(C)C)CC5)nn4)cc23)CCCCC1` [Example 663, (S)-6-(((1-(1-(tert-butyl)piperidin-4-yl)-1H-1,2,3-triazol-4-yl)(4-chlorophenyl)methyl)amino)-8-chloro-4-((1-methylcyclohexyl)amino) quinoline-3-carbonitrile], the IC50 in experiment [1] (setting [3]) turned out to be 72 nM. Moreover, the EC50 in experiment [2] (setting [4]) was 4740 nM.

Consider `[2H]C(Nc1cc(Cl)c2ncc(C#N)c(N[C@H](CC)c3ccccc3)c2c1)(c1ccc(F)cc1)c1cn(C2CC2)cn1` (stereo partly drawn) [Example 354, 8-chloro-6-(((1-cyclopropyl-1H-imidazol-4-yl)(4-fluorophenyl)methyl-d)amino)-4-(((R)-1-phenylpropyl)amino) quinoline-3-carbonitrile], for which the IC50 in experiment [1] (setting [7]) is 86 nM. Besides, the EC50 in experiment [2] (setting [4]) was 689 nM.

Consider `CC[C@@H](Nc1c(C#N)cnc2c(Cl)cc(N[C@@H](c3cccc(C(=O)N(C)C)c3)c3c[nH]nn3)cc12)c1ccccc1` [Example 598, 3-((S)-((8-chloro-3-cyano-4-(((R)-1-phenylpropyl)amino)quinolin-6-yl)amino)(1H-1,2,3-triazol-4-yl)methyl)-N,N-dimethylbenzamide], for which the IC50 in experiment [1] (setting [3]) stood at 4 nM. Further, the EC50 in experiment [2] (setting [4]) turned out to be 418 nM.

Consider `N#CCC[C@@H](Nc1c(C#N)cnc2c(C#N)cc(N[C@@H](c3ccccc3)c3cn(C4(C#N)CC4)nn3)cc12)c1ccccc1` [Example 961, 4-(((R)-3-cyano-1-phenylpropyl)amino)-6-(((S)-(1-(1-cyanocyclopropyl)-1H-1,2,3-triazol-4-yl)(phenyl)methyl)amino) quinoline-3,8-dicarbonitrile], for which the IC50 in experiment [1] (setting [5]) came out at 1 nM. In experiment [2] (setting [6]), the EC50 worked out at 21 nM.

For `[2H][C@](Nc1cc(Cl)c2ncc(C#N)c(N[C@H](CCN3CCCC3)c3ccccc3)c2c1)(c1ccc(F)cc1)c1cn(C2CC2)nn1` [Example 167, 8-chloro-6-(((1-cyclopropyl-1H-1,2,3-triazol-4-yl) (4-fluorophenyl)methyl-d)amino)-4-(((R)-1-phenyl-3-(pyrrolidin-1-yl)propyl)amino) quinoline-3-carbonitrile], the IC50 in experiment [1] (setting [7]) stood at 171 nM. In addition, the EC50 in experiment [2] (setting [4]) was > 10000 nM.

Take `Cc1c(C#N)cccc1[C@H](Nc1cc(C#N)c2ncc(C#N)c(NCC(C)(C)C)c2c1)c1cn(C2(C(F)F)CC2)nn1` [Example 1013, (S)-6-(((3-cyano-2-methylphenyl)(1-(1-(difluoromethyl)cyclopropyl)-1H-1,2,3-triazol-4-yl)methyl)amino)-4-(neopentylamino)quinoline-3,8-dicarbonitrile]: in experiment [1] (setting [5]), the IC50 stood at 2 nM. In addition, in experiment [2] (setting [6]), the EC50 amounted to 23 nM.

As to `[2H][C@](Nc1cc(Cl)c2ncc(C#N)c(N[C@H](CC)c3cccc(F)c3)c2c1)(c1ccc(F)cc1)c1cn(C2CC2)nn1` [Example 300, 8-chloro-6-(((S)-(1-cyclopropyl-1H-1,2,3-triazol-4-yl)(4-fluorophenyl)methyl-d)amino)-4-(((R)-1-(3-fluorophenyl)propyl)amino) quinoline-3-carbonitrile], the IC50 in experiment [1] (setting [7]) amounted to 4 nM. Also, in experiment [2] (setting [4]), the EC50 was 126 nM.

With `N#Cc1cnc2c(Cl)cc(N[C@@H](c3ccc(Cl)cc3)c3c[nH]nn3)cc2c1Nc1cnc(F)c(F)c1` [Example 495, (S)-8-chloro-6-(((4-chlorophenyl)(1H-1,2,3-triazol-4-yl)methyl)amino)-4-((5,6-difluoropyridin-3-yl)amino) quinoline-3-carbonitrile], in experiment [1] (setting [3]), the IC50 was determined as 32 nM. Further, the EC50 in experiment [2] (setting [4]) was found to be 641 nM.

In the case of `Cn1cc(C(Nc2cc(Cl)c3ncc(C#N)c(Nc4ccc(F)c(Cl)c4)c3c2)c2ccc(F)cc2)cn1` (stereo not shown) [Example 853, 8-chloro-4-((3-chloro-4-fluorophenyl)amino)-6-(((4-fluorophenyl)(1-methyl-1H-pyrazol-4-yl)methyl)amino)quinoline-3-carbonitrile], in experiment [1] (setting [3]), the 50% inhibitory concentration (IC50) amounted to 6300 nM. Also, the EC50 in experiment [2] (setting [4]) was > 1000 nM.

For `[2H]C(Nc1cc(Cl)c2ncc(C#N)c(NCC(C)(C)C)c2c1)(c1cn(CC(N)=O)nn1)c1ccccc1Cl` (stereo not shown) [Compound 4], the IC50 in experiment [1] (setting [7]) is 6 nM. Also, the EC50 in experiment [2] (setting [4]) was 280 nM.

Turning to `[2H][C@](Nc1cc(C(F)(F)F)c2ncc(C#N)c(N[C@H](CC)c3ccccc3)c2c1)(c1ccc(F)cc1)c1cn(C2CC2)nn1` [Example 195, 6-(((S)-(1-cyclopropyl-1H-1,2,3-triazol-4-yl)(4-fluorophenyl)methyl-d)amino)-4-(((R)-1-phenylpropyl)amino)-8-(trifluoromethyl) quinoline-3-carbonitrile], the IC50 in experiment [1] (setting [7]) came out at 160 nM. For the same compound, in experiment [2] (setting [4]), the EC50 turned out to be 1190 nM.

On to `CC(C)(C)CNc1c(C#N)cnc2c(C#N)cc(N[C@H](c3cn(C4(C#N)CC4)nn3)c3ccccc3CO)cc12` [Example 1026, (S)-6-(((1-(1-cyanocyclopropyl)-1H-1,2,3-triazol-4-yl)(2-(hydroxymethyl)phenyl)methyl)amino)-4-(neopentylamino)quinoline-3,8-dicarbonitrile], for which the IC50 in experiment [1] (setting [5]) turned out to be 7 nM. The half-maximal effective concentration (EC50) in experiment [2] (setting [6]) came out at 371 nM.

Regarding `CC1(C)CC(n2cc([C@@H](Nc3cc(Cl)c4ncc(C#N)c(Nc5ccc(F)c(Cl)c5)c4c3)c3ccccc3)nn2)CCN1` (stereo partly drawn) [Example 790, 8-chloro-4-((3-chloro-4-fluorophenyl)amino)-6-(((1S)-(1-(2,2-dimethylpiperidin-4-yl)-1H-1,2,3-triazo1-4-yl)(phenyl)methyl)amino) quinoline-3-carbonitrile], the IC50 in experiment [1] (setting [3]) was found to be 4 nM. Moreover, the EC50 in experiment [2] (setting [4]) is 305 nM.

Take `CC[C@@H](Nc1c(C#N)cnc2c(Cl)cc(N[C@@H](c3ccc(F)cc3)c3cn(C4(C(F)(F)F)CC4)nn3)cc12)c1ccccc1` [Example 379, 8-chloro-6-(((S)-(4-fluorophenyl)(1-(1-(trifluoromethyl)cyclopropyl)-1H-1,2,3-triazo1-4-yl)methyl)amino)-4-(((R)-1-phenylpropyl)amino)quinoline-3-carbonitrile]: the IC50 in experiment [1] (setting [7]) stood at 30 nM. Besides, the EC50 in experiment [2] (setting [4]) turned out to be 191 nM.
